This note sets out measurements from ChEMBL document CHEMBL1177844 (Eur J Med Chem, 2010).

This experiment can be described thus: Inhibition of ROCK.
Usually pIC50 stands for the negative decadic logarithm of the IC50, by convention in mol/L. Read a low pIC50 as a high IC50. As for `Clc1cccc(CN2CCC(Nc3ccc4[nH]ncc4c3)CC2)c1`, the pIC50 amounted to 6.54.

In turn, `c1cc2[nH]ncc2cc1NC1CCNC1` (stereo not drawn) came in with a negative logarithm of the IC50 (pIC50) of 7.

As for `c1ccc(CN2CCCC(Nc3ccc4[nH]ncc4c3)C2)nc1` (stereo not drawn), the negative-log IC50 (pIC50) is listed as 6.62.

`Fc1ccc(CN2CCC(Nc3cccc4cnccc34)C2)cc1` (stereo not drawn): the negative logarithm of the IC50 (pIC50) is recorded as 7.02.

`COc1ccc(CN2CCCC(Nc3ccc4[nH]ncc4c3)C2)cc1` (stereo not drawn) came in with a pIC50 of 7.8.

In turn, `Nc1cccc(CN2CCCC(Nc3ccc4[nH]ncc4c3)C2)c1` (stereo not drawn) returned a negative-log IC50 (pIC50) of 7.46.

In turn, `O=C(NCc1c(Cl)cccc1Cl)Nc1ccc2[nH]ncc2c1` gave a pIC50 of 7.7.

For `O=C(CC1CCCCC1)Nc1ccc2[nH]ncc2c1`, the pIC50 came to 6.05.

Compound `Nc1ccccc1CN1CCCC(Nc2ccc3[nH]ncc3c2)C1` (stereo not drawn) registered a pIC50 of 7.07.

In turn, `Clc1ccc(CN2CCC(Nc3ccc4[nH]ncc4c3)CC2)cc1` had a pIC50 of 6.54.

Compound `Cc1ccc(CN2CCCC(Nc3ccc4[nH]ncc4c3)C2)cc1` (stereo not drawn) returned a negative logarithm of the IC50 (pIC50) of 8.05.

`c1ccc(CN2CCC(Nc3cccc4cnccc34)CC2)cc1`: the pIC50 was 6.85.

For `Fc1ccc(CN2CCCC(Nc3ccc4[nH]ncc4c3)C2)cc1F` (stereo not drawn), the pIC50 worked out at 8.

`Nc1cccc(CN2CCC(Nc3cccc4cnccc34)C2)c1` (stereo not drawn) registered a pIC50 of 6.56.

`c1cc(N[C@H]2CC[C@H](NC3CC3)CC2)c2ccncc2c1` showed a negative logarithm of the IC50 (pIC50) of 7.15.

The compound `Clc1ccccc1CN1CCCC(Nc2ccc3[nH]ncc3c2)C1` (stereo not drawn) yielded a negative-log IC50 (pIC50) of 7.89.

As for `O=C(Nc1ccc2[nH]ncc2c1)C1CCCCC1`, the pIC50 turned out to be 6.3.

Compound `Nc1ccc(CN2CCCC(Nc3ccc4[nH]ncc4c3)C2)cc1` (stereo not drawn) yielded a pIC50 of 8.

Regarding `CCCN[C@H]1CC[C@H](Nc2cccc3cnccc23)CC1`, the pIC50 is 6.74.

The compound `c1cc2[nH]ncc2cc1NC1CCNCC1` gave a negative-log IC50 (pIC50) of 6.52.

`CCCN1CCCC(Nc2ccc3[nH]ncc3c2)C1` (stereo not drawn) registered a negative-log IC50 (pIC50) of 6.11.

`O=C(COc1c(Cl)cccc1Cl)Nc1ccc2[nH]ncc2c1` yielded a pIC50 of 6.

Compound `Fc1ccc(CN2CCCC(Nc3ccc4[nH]ncc4c3)C2)cc1` (stereo not drawn) showed a negative-log IC50 (pIC50) of 7.6.

`O=C(COc1c(Cl)cc(F)cc1Cl)Nc1ccc2[nH]ncc2c1` showed a pIC50 of 6.3.

In the case of `CC(C)CCN1CCCC(Nc2ccc3[nH]ncc3c2)C1` (stereo not drawn), the pIC50 stood at 6.47.

Regarding `Clc1ccc(CN2CCCC(Nc3ccc4[nH]ncc4c3)C2)cc1` (stereo not drawn), the pIC50 is listed as 7.96.

Take `CC(C)CCN1CCCC(Nc2cccc3cnccc23)C1` (stereo not drawn): the pIC50 is given as 6.57.

Compound `c1ccc(CN2CCCC(Nc3cccc4cnccc34)C2)cc1` (stereo not drawn) came in with a pIC50 of 6.7.

In turn, `c1ccc(CN2CCC(Nc3ccc4[nH]ncc4c3)C2)cc1` (stereo not drawn) returned a negative logarithm of the IC50 (pIC50) of 7.49.

On to `COc1cc(CN2CCCC(Nc3ccc4[nH]ncc4c3)C2)cc(OC)c1` (stereo not drawn), for which the pIC50 was found to be 7.1.

The compound `Clc1cccc(CN2CCC(Nc3cccc4cnccc34)C2)c1` (stereo not drawn) returned a pIC50 of 7.19.

With `Clc1ccccc1CN1CCC(Nc2ccc3[nH]ncc3c2)C1` (stereo not drawn), the pIC50 amounted to 7.35.

In turn, `CC(C)CN1CCC(Nc2cccc3cnccc23)CC1` displayed a pIC50 of 6.68.

Take `c1coc(CN2CCCC(Nc3ccc4[nH]ncc4c3)C2)c1` (stereo not drawn): the negative logarithm of the IC50 (pIC50) stood at 6.74.

`Fc1cc2[nH]ncc2cc1NC1CCCN(Cc2ccccc2)C1` (stereo not drawn) came in with a pIC50 of 6.4.

Turning to `c1ccc(CN[C@H]2CC[C@H](Nc3ccc4[nH]ncc4c3)CC2)cc1`, the pIC50 amounted to 6.28.

In turn, `Nc1ccccc1CN1CCC(Nc2cccc3cnccc23)C1` (stereo not drawn) yielded a pIC50 of 6.69.

The compound `Cc1n[nH]c2ccc(NC3CCCN(Cc4ccccc4)C3)cc12` (stereo not drawn) yielded a pIC50 of 6.82.

As to `c1ccc(CCN[C@H]2CC[C@@H](Nc3cccc4cnccc34)CC2)cc1`, the pIC50 turned out to be 6.24.

For the compound `Fc1cccc(F)c1CN1CCC(Nc2cccc3cnccc23)C1` (stereo not drawn), the pIC50 amounted to 7.12.

`Clc1ccc(CN2CCC(Nc3cccc4cnccc34)C2)cc1` (stereo not drawn) displayed a pIC50 of 7.19.

`CC(C)CCCN1CCCC(Nc2cccc3cnccc23)C1` (stereo not drawn) yielded a pIC50 of 7.

In turn, `Clc1cccc(CN2CCCC(Nc3ccc4[nH]ncc4c3)C2)c1` (stereo not drawn) returned a negative logarithm of the IC50 (pIC50) of 7.72.

The compound `Clc1ccccc1CN1CCC(Nc2cccc3cnccc23)C1` (stereo not drawn) had a pIC50 of 7.

`Clc1cccc(CN2CCCC(Nc3cccc4cnccc34)C2)c1` (stereo not drawn) gave a pIC50 of 6.58.

The compound `c1ccc(CN2CCCC(Nc3ccc4[nH]ncc4c3)C2)cc1` (stereo not drawn) registered a pIC50 of 7.7.

`O=C(Nc1ccc2[nH]ncc2c1)C1CCN(Cc2ccccc2)CC1` showed a pIC50 of 6.87.

Consider `O=C(NCc1c(F)cccc1F)Nc1ccc2[nH]ncc2c1`, for which the pIC50 was 7.07.

`Clc1ccccc1CN1CCCC(Nc2cccc3cnccc23)C1` (stereo not drawn) had a pIC50 of 6.68.

As to `O=C(Nc1ccc2[nH]ncc2c1)C1CCCN(Cc2ccccc2)C1` (stereo not drawn), the pIC50 was determined as 7.74.

As for `Clc1ccccc1CN1CCC(Nc2ccc3[nH]ncc3c2)CC1`, the pIC50 came to 6.36.

`c1ccc(CN[C@H]2CC[C@@H](Nc3ccc4[nH]ncc4c3)CC2)cc1`: the pIC50 is 6.49.

For the compound `O=[N+]([O-])c1ccc(CN2CCCC(Nc3ccc4[nH]ncc4c3)C2)cc1` (stereo not drawn), the pIC50 is listed as 7.06.

`O=C(NC1CCN(Cc2ccccc2)CC1)c1ccc2[nH]ncc2c1` had a pIC50 of 6.27.

Regarding `c1ccc(CN2CCC(Oc3ccc4[nH]ncc4c3)CC2)cc1`, the pIC50 worked out at 7.

`CCCN[C@H]1CC[C@@H](Nc2cccc3cnccc23)CC1` gave a pIC50 of 6.74.

On to `c1cncc(CN2CCCC(Nc3ccc4[nH]ncc4c3)C2)c1` (stereo not drawn), for which the pIC50 was 7.14.

In turn, `O=C(NCc1ccccc1)Nc1ccc2[nH]ncc2c1` displayed a pIC50 of 6.59.

As to `CCN1CCC(Nc2ccc3[nH]ncc3c2)CC1`, the pIC50 came out at 6.15.

For `CNC1CCC(Nc2cccc3cnccc23)CC1` (stereo not drawn), the pIC50 is recorded as 6.7.

`CN(CCNc1ccc2[nH]ncc2c1)Cc1ccccc1`: the pIC50 amounted to 5.1.

`CCCN1CCC(Nc2cccc3cnccc23)CC1` came in with a pIC50 of 6.46.

The compound `O=C(NCc1ccc(Cl)cc1Cl)Nc1ccc2[nH]ncc2c1` displayed a pIC50 of 6.66.

For `c1c[nH]c(CN2CCCC(Nc3ccc4[nH]ncc4c3)C2)c1` (stereo not drawn), the pIC50 was 7.96.

`c1cc(N[C@H]2CC[C@@H](NC3CC3)CC2)c2ccncc2c1` yielded a pIC50 of 6.74.

Compound `c1ccc(CN2CCCC(Oc3ccc4[nH]ncc4c3)C2)cc1` (stereo not drawn) had a pIC50 of 8.

`Nc1ccc(CN2CCC(Nc3cccc4cnccc34)C2)cc1` (stereo not drawn): the pIC50 was 6.63.

In the case of `c1ccc(CCN[C@H]2CC[C@H](Nc3cccc4cnccc34)CC2)cc1`, the negative logarithm of the IC50 (pIC50) stood at 6.39.
